# Measured values published in paper PMC12597941 (Frontiers in Pharmacology, 2025).
# Tested on: not listed separately
# Test: Plasma levels of terpene lactones, flavonol aglycones and PAC metabolites in T-maze mice
# Assay type: in vivo
# Conditions: mouse plasma, after PAC fraction 100 mg/kg p.o., peak area
# Description: Targeted LC-MS/MS was used to quantify known and newly identified PAC metabolites (MRM transitions based on MS2 spectra of the untargeted analysis), as well as main ginkgo terpene lactones and flavonol aglycones in one single run in mouse plasma obtained from the pharmacological experiments (Supplementary Table S1).
# The injection volume was 10 µL. […] Data processing was carried out with MassHunter Quantitative Analysis 10.1 software.
# Plasma levels of terpene lactones (ginkgolide A, ginkgolide B, and bilobalide) and main ginkgo flavonol aglycones (quercetin, kaempferol, and isorhamnetin) were quantified in samples from animals used in the T-maze model. The detailed protocols for the analysis methods are included in the Supplementary Material.
# Quantification of Acetylcholine in plasma […]
# as described in the manufacturer’s instructions. […]
# for 30 min at room temperature. […]
# subtracted and of ACh concentration was calculated.
# Flavonol aglycone quantification in plasma […]
# methanol. […]
# Data processing was conducted with mass hunter quantitative analysis 10.1.
# Terpene lactone quantification in plasma […]
# An Agilent 7890B GC (Agilent, Santa Clara, CA) coupled to an Agilent 7000D triple-quadrupole MS (Agilent, Santa Clara, CA) was used to analyze all samples. […] Target analytes were analyzed in negative ion chemical ionization with multiple reaction monitoring (MRM) mode using […]
row,Compound,time of peak plasma level
1,Gallic acid-O-sulphate [M02],1 h

# Same assay, conditions: plasma of PAC-treated mice, approximately 1 h 15 min after administration
row,Compound,plasma level versus PAC dose
1,"O=C(O)c1cc(O)c(O)c(O)c1 [M01, Gallic acid]",dose-dependent increase

# Tested on: scopolamine-induced working memory impairment
# Test: T-maze spontaneous alternation, scopolamine-induced memory impairment
# Assay type: in vivo
# Conditions: mice, p.o. 1 h before T-maze; donepezil 0.3 mg/kg
# Description: To impair short-term memory, mice were injected intraperitoneally (i.p.) with 1 mg/kg scopolamine (S1875, Sigma-Aldrich) or 0.9% NaCl (PZN01399062, Fresenius) 20 min prior to the experimental session. […] Switching from the right to the left arm of the T-maze or vice versa was calculated as correct alternations (%). The method is based on the study by [Deacon (2006)]. At 15 min after the start of the T-maze observation and once the 20 arm entry trials were finalized, animals were euthanized with CO2, and blood was collected by cardiac puncture for EDTA-plasma (Figure 1).
# Data were analyzed using GraphPad Prism 10.1.2 (GraphPad Software, La Jolla, CA). Experimental groups were compared using one-way analysis of variance (ANOVA) or two-way ANOVA, followed by Dunnett’s post-test. Vehicle and each active treatment group were compared to the vehicle–scopolamine group (that received vehicle p.o., followed by i.p. injection of scopolamine). For calculation of dose–response curves, reversal of the scopolamine-induced amnesia was calculated. […] For ROS data, baseline ROS levels without treatment were set as 0% inhibition. […] Emax, and relative ID50 values for the T-maze in vivo studies were taken directly from the calculated dose–response curve data provided by Graph Pad Prism. […]
row,Compound,effect on scopolamine-induced impairment of correct alternations
1,COc1cc2c(cc1OC)C(=O)C(CC1CCN(Cc3ccccc3)CC1)C2 (stereo not shown) [donepezil],largely prevented

# Tested on: not listed separately
# Test: Untargeted LC-HRMS metabolite profiling after oral PAC administration
# Conditions: after oral PACs
# Description: Animals to be sacrificed at 6 h (only test item-treated animals) were placed in metabolic cages (650-0100, Nalgene) for the collection of urine. Urine was stabilized with a final concentration of 4 mM NaN3 and stored at 4 °C. At 1 h and 6 h after the administration of the vehicle (1 h only) or test items (1 and 6 h), animals from the respective treatment groups were euthanized by CO2 inhalation. Blood was obtained by cardiac puncture and drawn in lithium-heparin-containing vials for the preparation of plasma by centrifugation (4,000 rpm, 4 °C, 10 min). Plasma was stored at −80 °C until bioanalytical analysis. Samples of the mixed intestinal content were obtained by scraping the small intestine, cecum, and large intestine into a 5-mL tube. Tubes were covered with gaseous N2 and stored at −80 °C.
# The supernatant was evaporated to dryness and resuspended in 150 µL 1% FA in H2O/ACN (9/1, v/v) for analysis.
# Rat intestinal content was first freeze-dried and finely crushed. […] Ethyl acetate extracts were evaporated to dryness and then resuspended in 300 µL 1% FA in H2O/ACN (9/1, v/v) for untargeted LC-HRMS analysis. Internal standards (listed in Supplementary Table S1) were spiked to both the sample types to ensure the performance of the measurements and monitor matrix effect.
# Untargeted metabolite profiling was performed using a Vanquish UHPLC coupled with an Orbitrap Fusion Tribrid mass spectrometer (Thermo Fisher Scientific, Waltham, MA, United States of America) fitted with a HESI source. Chromatographic separation was performed on Waters Acquity HSS T3 1.8 µm Column (2.1 mm × 150 mm) (Waters Technologies, United States of America). The injection volume was 5 µL. The flow rate was set at 0.45 mL/min, and the column temperature was 40 °C. […] The gradient was as follows: 0% B from 0 to 2 min, 0%–10% B from 2 to 10 min, 10%–80% B from 10 to 25 min, 80%–100% B from 25 to 26 min, 100% B from 26 to 31 min, 100%–0% B from 31 to 32 min, and 3 min equilibration at 0% B.
# Compound discoverer 3.1 (CD, Thermo Fisher Scientific, Waltham, MA, United States of America) was used for untargeted and novel feature detection. Raw files were processed with CD in the following steps: first, spectra were selected from raw data followed by retention time (RT) alignment with RT tolerance of 2 min and 5 ppm mass precision. Then, unknown compounds were detected and grouped with RT tolerance of 0.5 min and 5 ppm mass deviation. Missing values were filled. The composition was predicted based on the exact mass. The compounds were annotated with different types of databases. mzCloud was used to annotate compounds on the MS/MS level with a mass tolerance of 10 ppm. ChemSpider was used to annotate features based on the exact mass with a mass tolerance of 20 ppm.
# Relevant features were identified by performing differential analysis between the vehicle and PAC treatment groups in Compound Discoverer software. […] Compound annotations of these features were checked for plausibility, and, if necessary, structural elucidation was manually continued.
row,Compound,Time points at which the metabolite was detected
1,"O=C(O)[C@H]1O[C@@H](Oc2c(-c3cc(O)c(O)c(O)c3)oc3cc(O)cc(O)c3c2=O)[C@H](O)[C@@H](O)[C@@H]1O [M18, Myricetin 3-O-glucuronide]",1 h
2,"Oc1cc(O)c2c(c1)OC(c1ccc(O)c(O)c1)C(O)C2 (stereo not shown) [M11, Catechin]",6 h
3,"COc1cc(C(O)C(O)/C(=C\C(=O)O)c2ccccc2)cc(O)c1O (stereo not shown) [M17, (2Z)-5-(3,4-dihydroxy-5-methoxyphenyl)-4,5-dihydroxy-3-phenylpent-2-enoic acid]",6 h
4,"O=C1CCC(Cc2ccc(O)c(O)c2)O1 (stereo not shown) [M13, 5-(3‘,4‘-Dihydroxyphenyl)-γ-Valerolactone]",6 h
5,"COc1cc(O)cc2oc(-c3cc(O)c(O)c(O)c3)c(O)c(=O)c12 [M21, 5-O-Methylmyricetin]",6 h
6,"O=C(O[C@@H]1Cc2c(O)cc(O)cc2O[C@@H]1c1cc(O)c(O)c(O)c1)c1cc(O)c(O)c(O)c1 [M15, Epigallocatechin gallate]",1 h
7,"Oc1cc(O)c(CC(O)Cc2ccc(O)c(O)c2)c(O)c1 (stereo not shown) [M14, 1-(3′,4′-dihydroxyphenyl)-3-(2″,4″,6″-trihydroxyphenyl)propan-2-ol]",6 h
8,"Oc1cc(O)c(CC(O)Cc2cc(O)c(O)c(O)c2)c(O)c1 (stereo not shown) [M09, 1-(3‘,4‘,5‘-trihydroxyphenyl)-3-(2‘‘,4‘‘,6‘‘-trihydroxyphenyl)propan-2-ol]",6 h
9,"O=C1CCC(Cc2cc(O)cc(O)c2)O1 (stereo not shown) [M12, 5-(3‘,5‘-Dihydroxyphenyl)-γ-Valerolactone]",6 h
10,"COc1cc(-c2oc3cc(O)cc(O)c3c(=O)c2O[C@@H]2O[C@H](C(=O)O)[C@@H](O)[C@H](O)[C@H]2O)cc(O)c1O [M19, 5'-O-methyl Myricetin 3-O-glucuronide]",1 h
11,"O=C1CCC(Cc2cc(O)c(O)c(O)c2)O1 (stereo not shown) [M08, 5-(3',4',5'-trihydroxyphenyl)-gamma-Valerolactone]",6 h

# Same assay, conditions: after oral PACs; c = detected in mice plasma
row,Compound,Compartment in which the metabolite was detected
1,"O=C(O)[C@H]1O[C@@H](Oc2c(-c3cc(O)c(O)c(O)c3)oc3cc(O)cc(O)c3c2=O)[C@H](O)[C@@H](O)[C@@H]1O [M18, Myricetin 3-O-glucuronide]",Intestine
2,Gallic acid-O-sulphate [M02],Plasmac
3,"Oc1cc(O)c2c(c1)OC(c1ccc(O)c(O)c1)C(O)C2 (stereo not shown) [M11, Catechin]",Intestine
4,"COc1cc(C(O)C(O)/C(=C\C(=O)O)c2ccccc2)cc(O)c1O (stereo not shown) [M17, (2Z)-5-(3,4-dihydroxy-5-methoxyphenyl)-4,5-dihydroxy-3-phenylpent-2-enoic acid]",Intestine
5,"O=C1CCC(Cc2ccc(O)c(O)c2)O1 (stereo not shown) [M13, 5-(3‘,4‘-Dihydroxyphenyl)-γ-Valerolactone]",Intestine
6,"COc1cc(O)cc2oc(-c3cc(O)c(O)c(O)c3)c(O)c(=O)c12 [M21, 5-O-Methylmyricetin]",Urine
7,"O=C(O[C@@H]1Cc2c(O)cc(O)cc2O[C@@H]1c1cc(O)c(O)c(O)c1)c1cc(O)c(O)c(O)c1 [M15, Epigallocatechin gallate]",Intestine
8,Gallic acid glucuronide [M03],Urine
9,"COc1cc(C=O)ccc1O[C@@H]1O[C@H](C(=O)O)[C@@H](O)[C@H](O)[C@H]1O [M07, Vanillin glucuronide]",Urine
10,"Oc1cc(O)c(CC(O)Cc2ccc(O)c(O)c2)c(O)c1 (stereo not shown) [M14, 1-(3′,4′-dihydroxyphenyl)-3-(2″,4″,6″-trihydroxyphenyl)propan-2-ol]",Intestine
11,"Oc1cc(O)c(CC(O)Cc2cc(O)c(O)c(O)c2)c(O)c1 (stereo not shown) [M09, 1-(3‘,4‘,5‘-trihydroxyphenyl)-3-(2‘‘,4‘‘,6‘‘-trihydroxyphenyl)propan-2-ol]",Intestine
12,"Oc1cc(O)c2c(c1)O[C@H](c1cc(O)c(O)c(O)c1)[C@H](O)C2 [M10, Epigallocatechin]",Intestine
13,"O=C1CCC(Cc2cc(O)cc(O)c2)O1 (stereo not shown) [M12, 5-(3‘,5‘-Dihydroxyphenyl)-γ-Valerolactone]",Intestine
14,Methylgallic acid-O-sulphate [M06],Urine
15,"Oc1cc(O)c2c(c1)O[C@H](c1cc(O)c(O)c(O)c1)[C@@H](O)C2 [M04, Gallocatechin]",Intestine
16,"COc1cc(-c2oc3cc(O)cc(O)c3c(=O)c2O[C@@H]2O[C@H](C(=O)O)[C@@H](O)[C@H](O)[C@H]2O)cc(O)c1O [M19, 5'-O-methyl Myricetin 3-O-glucuronide]",Intestine
17,"O=C1CCC(Cc2cc(O)c(O)c(O)c2)O1 (stereo not shown) [M08, 5-(3',4',5'-trihydroxyphenyl)-gamma-Valerolactone]",Intestine

# Same assay, conditions: rat, in vivo, po
Compound,Time points at which the metabolite was detected,Compartment in which the metabolite was detected
"O=C(O)c1cc(O)c(O)c(O)c1 [M01, Gallic acid]",6 h,–
"O=c1c(O)c(-c2cc(O)c(O)c(O)c2)oc2cc(O)cc(O)c12 [M20, Myricetin]","1h, 6h",Intestine
